How the values were obtained:
[1] = target: Histamine H3 receptor (Rattus norvegicus, UniProt Q9QYN8); experiment: Radioligand Binding Assay
Procedure: (§1) Competition radioligand binding assays were performed with increasing concentrations of test compound in the presence of [3H]ligand. All binding reactions were terminated by filtration. Bound radiolabel was determined by liquid scintillation counting. For all of the radioligand competition binding assays, IC50 values and Hill slopes were determined by Hill transformation of the data and Ki values were determined by the Cheng-Prusoff equation.

[2] = target: Histamine H3 receptor (Homo sapiens, UniProt Q9Y5N1); experiment: Radioligand Binding Assay; details: pH 7.4; 25 °C
Procedure: as §1

Histamine H3 receptor (Homo sapiens, UniProt Q9Y5N1), sequence (Q9Y5N1 whole entry): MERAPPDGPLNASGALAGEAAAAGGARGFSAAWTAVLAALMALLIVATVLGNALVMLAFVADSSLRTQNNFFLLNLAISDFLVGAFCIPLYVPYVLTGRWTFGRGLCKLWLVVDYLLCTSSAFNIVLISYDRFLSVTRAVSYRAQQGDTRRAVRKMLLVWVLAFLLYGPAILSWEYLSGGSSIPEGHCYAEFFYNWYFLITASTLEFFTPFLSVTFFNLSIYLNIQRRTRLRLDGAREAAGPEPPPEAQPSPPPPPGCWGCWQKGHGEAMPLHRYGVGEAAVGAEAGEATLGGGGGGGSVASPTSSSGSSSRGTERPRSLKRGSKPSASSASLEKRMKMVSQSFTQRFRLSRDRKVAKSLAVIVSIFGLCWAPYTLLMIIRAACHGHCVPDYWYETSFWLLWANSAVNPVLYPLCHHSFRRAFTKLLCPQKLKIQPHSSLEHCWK
Histamine H3 receptor (Rattus norvegicus, UniProt Q9QYN8), sequence (Q9QYN8 whole entry): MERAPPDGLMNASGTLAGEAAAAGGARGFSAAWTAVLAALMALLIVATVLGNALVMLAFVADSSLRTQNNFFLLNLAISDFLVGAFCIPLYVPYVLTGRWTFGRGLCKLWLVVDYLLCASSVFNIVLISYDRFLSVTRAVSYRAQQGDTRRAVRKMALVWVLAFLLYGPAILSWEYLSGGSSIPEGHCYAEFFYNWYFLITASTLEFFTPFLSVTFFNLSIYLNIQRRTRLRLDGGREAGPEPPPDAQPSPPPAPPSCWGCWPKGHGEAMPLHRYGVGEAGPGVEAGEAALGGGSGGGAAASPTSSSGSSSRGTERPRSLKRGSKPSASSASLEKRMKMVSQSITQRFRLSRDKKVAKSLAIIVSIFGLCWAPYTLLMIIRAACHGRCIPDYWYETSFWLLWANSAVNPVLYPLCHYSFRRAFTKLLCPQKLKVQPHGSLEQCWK

CN[C@H]1CC[C@@]2(C)C(=CC[C@H]3[C@@H]4CC[C@@H]5[C@H](C)N(C)C[C@@]54CC[C@@H]32)C1 [(1R,2S,5S,6S,9R,12S,13R,16S)-N,6,7,13-tetramethyl-7-azapentacyclo[10.8.0.0^{2,9}.0^{5,9}.0^{13,18}]icos-18-en-16-amine] showed a Ki [1] of 302 nM and a Ki [2] of 38 nM.
